The source of these data is PubChem BioAssay (NCI).

Some test systems named below: LOX IMVI melanoma; M14 melanoma; OVCAR-8 ovarian; A498 renal; DU-145 prostate; SK-OV-3 ovarian; NCI/ADR-RES ovarian; UO-31 renal; SF-268 CNS; COLO 205 colon.
Common to all, as to test: growth of human tumour cells (NCI), 48 h

Each structure is given as a SMILES string. Values joined by “and” are separate entries in the source; they are usually repeats but may differ in a detail not shown here. Identical values can stand only once.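 Assay format: 96-well plates, 48-hour exposure. Abbreviation: GI50, concentration required for 50% inhibition of growth. TGI: concentration producing complete growth inhibition.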

Turning to `CCC[CH2][Sn]([CH2]CCC)([O]C(=O)c1cccc(F)c1F)[O][Sn]([CH2]CCC)([CH2]CCC)[O]C(=O)c1cccc(F)c1F`, the GI50 in the assay with LOX IMVI melanoma is 0.111 µM; in the assay with M14 melanoma, 0.274 µM; in the assay with OVCAR-8 ovarian, 0.285 µM; with A498 renal, 0.202 µM; with DU-145 prostate, 0.457 µM; with SK-OV-3 ovarian it was 0.915 µM. The GI50 was 0.3 µM in the assay with NCI/ADR-RES ovarian, 0.506 µM in the assay on UO-31 renal, 0.157 µM in the assay with SF-268 CNS and 0.288 µM with COLO 205 colon. For the same compound, the TGI in the assay with LOX IMVI melanoma was 0.25 µM; in the assay with M14 melanoma, 0.891 µM; with OVCAR-8 ovarian, 1.16 µM; in the assay with A498 renal, 0.526 µM; in the assay on DU-145 prostate, 1.63 µM; in the assay on SK-OV-3 ovarian, 2.23 µM. The TGI in the assay on NCI/ADR-RES ovarian was determined as 1.32 µM; with UO-31 renal, 1.72 µM; in the assay on SF-268 CNS it was 0.541 µM; in the assay with COLO 205 colon, 0.969 µM.
For `C[C@]12CC[C@H]3[C@@H](CC=C4C[C@@H](O)CC[C@@]43C)[C@@H]1C/C(=C\c1cccc(OCCCn3ccnc3)c1)[C@@H]2O`, the GI50 in the assay with LOX IMVI melanoma was 15.7 µM; in the assay on M14 melanoma it was 13.4 µM; in the assay on OVCAR-8 ovarian, 14.4 µM; in the assay on A498 renal it was 13.4 µM; with DU-145 prostate, 14.2 µM; with SK-OV-3 ovarian it was 16.2 µM. For the same compound, the GI50 in the assay with NCI/ADR-RES ovarian is 20.4 µM; in the assay with UO-31 renal, 13 µM; in the assay with SF-268 CNS, 16.8 µM; in the assay with COLO 205 colon, 8.33 µM. Also, the TGI in the assay on LOX IMVI melanoma worked out at 39.6 µM; in the assay on M14 melanoma, 35.7 µM; with OVCAR-8 ovarian, 43.1 µM; in the assay on A498 renal, 26.8 µM; in the assay on DU-145 prostate, 28.3 µM; in the assay on SK-OV-3 ovarian it was 32.7 µM. The TGI in the assay with NCI/ADR-RES ovarian worked out at 99.7 µM; in the assay on UO-31 renal, 28.3 µM; with SF-268 CNS, 37.5 µM; in the assay on COLO 205 colon it was 27 µM.
Take `Nc1nc(F)nc2c1ncn2C1OC(COP(=O)(O)O)C(O)C1O` (stereo not given): the TGI was found to be 334 µM in the assay with LOX IMVI melanoma; 66.7 µM with M14 melanoma; 196 µM with OVCAR-8 ovarian; 694 µM with A498 renal; 124 µM with DU-145 prostate; 292 µM with SK-OV-3 ovarian. Further, the TGI in the assay on NCI/ADR-RES ovarian came to 106 µM; in the assay on UO-31 renal, 76.4 µM; with SF-268 CNS, 874 µM; in the assay with COLO 205 colon it was 610 µM.
For `CC(=O)NC(Cc1c[nH]c2ccccc12)C(=O)O` (stereo not given), the TGI with LOX IMVI melanoma, in the assay with M14 melanoma, in the assay on OVCAR-8 ovarian, with A498 renal, in the assay on DU-145 prostate and in the assay on SK-OV-3 ovarian was more than 100 µM in each case. Further, the TGI with NCI/ADR-RES ovarian, with UO-31 renal, in the assay on SF-268 CNS and with COLO 205 colon was more than 100 µM in each case.
Regarding `O=C1C=CC(=O)N1c1ccc2c(c1)Cc1cc(NC(=O)C(F)(F)F)ccc1-2`, the TGI is 32.7 µM with LOX IMVI melanoma; 44 µM with M14 melanoma; 34.6 µM in the assay on OVCAR-8 ovarian; 48.4 µM in the assay with A498 renal; 30.5 µM in the assay on DU-145 prostate; more than 100 µM with SK-OV-3 ovarian. Moreover, the TGI with NCI/ADR-RES ovarian was more than 75.7 µM; with UO-31 renal, 28.4 µM; in the assay with SF-268 CNS, 39.7 µM; in the assay on COLO 205 colon, 26 µM.
`C[C@]12CC[C@@H]3c4ccc(OCC(=O)O)cc4CC[C@H]3[C@@H]1CCC2=O`: the TGI in the assay on LOX IMVI melanoma, in the assay with M14 melanoma, in the assay with OVCAR-8 ovarian, with A498 renal, in the assay on DU-145 prostate and in the assay on SK-OV-3 ovarian was more than 100 µM throughout. The TGI in the assay with NCI/ADR-RES ovarian, in the assay on UO-31 renal, in the assay on SF-268 CNS and in the assay on COLO 205 colon was more than 100 µM in each case.
For `C=C1C(=O)O[C@H]2[C@H]1CC/C(Cn1cc(Cn3ccc4cc(Cl)ccc43)nn1)=C\CC[C@@]1(C)O[C@@H]21`, the GI50 is 1.31 µM in the assay on LOX IMVI melanoma; 1.65 µM in the assay on M14 melanoma; 1.66 µM in the assay on OVCAR-8 ovarian; 3.39 µM in the assay with A498 renal; 1.55 µM in the assay on DU-145 prostate; 13.9 µM in the assay with SK-OV-3 ovarian. For the same compound, the GI50 was 2.54 µM with NCI/ADR-RES ovarian, 1.09 µM in the assay on UO-31 renal, 1.65 µM with SF-268 CNS and 1.69 µM in the assay on COLO 205 colon. Also, the TGI came out at 2.88 µM in the assay with LOX IMVI melanoma; 3.63 µM in the assay with M14 melanoma; 3.57 µM in the assay with OVCAR-8 ovarian; 11.7 µM in the assay on A498 renal; 2.89 µM in the assay on DU-145 prostate; 26.9 µM in the assay on SK-OV-3 ovarian. Moreover, the TGI is 9.09 µM with NCI/ADR-RES ovarian, 2.29 µM in the assay with UO-31 renal, 3.13 µM in the assay on SF-268 CNS and 3.5 µM in the assay on COLO 205 colon.
On to `CCSc1nc(=S)[nH]c2[nH]ncc12`, for which the GI50 was 49.3 µM in the assay on LOX IMVI melanoma; more than 100 µM with M14 melanoma; more than 100 µM in the assay on OVCAR-8 ovarian; 21.6 µM in the assay with A498 renal; more than 100 µM with DU-145 prostate; 78.9 µM in the assay with SK-OV-3 ovarian. Moreover, the GI50 is more than 100 µM in the assay with NCI/ADR-RES ovarian, 75.2 µM with UO-31 renal, 51.9 µM with SF-268 CNS and 38.1 µM in the assay on COLO 205 colon. Moreover, the TGI with LOX IMVI melanoma was more than 100 µM; with M14 melanoma, more than 100 µM; with OVCAR-8 ovarian it was more than 100 µM; in the assay on A498 renal, 72.7 µM; in the assay on DU-145 prostate, more than 100 µM; in the assay on SK-OV-3 ovarian, more than 100 µM. For the same compound, the TGI in the assay with NCI/ADR-RES ovarian, in the assay with UO-31 renal, in the assay on SF-268 CNS and in the assay with COLO 205 colon was more than 100 µM throughout.
As for `CC1=Cc2cc3[n-]c(cc4nc(cc5[n-]c(cc1n2)c(C)c5CCC(=O)O)C(CCC(=O)O)=C4C)cc3C.[Cu+2]`, the GI50 in the assay with LOX IMVI melanoma is 28.1 µM; in the assay on M14 melanoma, more than 79.1 µM; with OVCAR-8 ovarian it was > 1 µM and 19.6 µM; in the assay on A498 renal it was > 1 µM and 16.2 µM; with DU-145 prostate, 23.5 µM; in the assay on SK-OV-3 ovarian it was > 1 µM and 18.8 µM. Also, the GI50 in the assay with NCI/ADR-RES ovarian was 37.2 µM; in the assay with UO-31 renal, > 1 µM and 38.3 µM; with SF-268 CNS, 10.8 µM and > 1 µM; with COLO 205 colon, > 1 µM and 40.7 µM. The TGI in the assay with LOX IMVI melanoma was more than 65.3 µM; with M14 melanoma, more than 100 µM; with OVCAR-8 ovarian, > 1 µM and 54.7 µM; with A498 renal it was > 1 µM and 36.5 µM; in the assay on DU-145 prostate it was 85.1 µM; in the assay on SK-OV-3 ovarian, > 1 µM and 41.9 µM. For the same compound, the TGI in the assay with NCI/ADR-RES ovarian is more than 100 µM; with UO-31 renal it was more than 92.7 µM; in the assay on SF-268 CNS it was 36.1 µM and > 1 µM; in the assay on COLO 205 colon it was more than 100 µM.
